Measured values as given in PubChem BioAssay (NCI).
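Compound exposure: 48 hours, 5 concentrations, 96-well plates. GI50: concentration for 50% inhibition of growth. Definition used: TGI = concentration required for complete inhibition of growth.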

Experiments:
Test in all cases: NCI-60 cell line screen, 48 h
MDA-MB-468 breast = test system: MDA-MB-468 breast
ACHN renal = test system: ACHN renal
SNB-19 CNS = test system: SNB-19 CNS
RPMI-8226 leukemia = test system: RPMI-8226 leukemia
SW-620 colon = test system: SW-620 colon
SK-MEL-28 melanoma = test system: SK-MEL-28 melanoma
NCI-H226 lung = test system: NCI-H226 lung
NCI-H460 lung = test system: NCI-H460 lung
786-0 renal = test system: 786-0 renal
NCI-H522 lung = test system: NCI-H522 lung
SR leukemia = test system: SR leukemia
MCF7 breast = test system: MCF7 breast
SK-MEL-2 melanoma = test system: SK-MEL-2 melanoma
NCI/ADR-RES ovarian = test system: NCI/ADR-RES ovarian
A498 renal = test system: A498 renal
DU-145 prostate = test system: DU-145 prostate
LOX IMVI melanoma = test system: LOX IMVI melanoma
HOP-92 NSCLC = test system: HOP-92 NSCLC
U251 CNS = test system: U251 CNS
SK-MEL-5 melanoma = test system: SK-MEL-5 melanoma
SNB-75 CNS = test system: SNB-75 CNS
SN12C renal = test system: SN12C renal
NCI-H23 lung = test system: NCI-H23 lung
OVCAR-8 ovarian = test system: OVCAR-8 ovarian
MDA-MB-231 breast = test system: MDA-MB-231 breast
OVCAR-5 ovarian = test system: OVCAR-5 ovarian
EKVX NSCLC = test system: EKVX NSCLC
UACC-257 melanoma = test system: UACC-257 melanoma
SK-OV-3 ovarian = test system: SK-OV-3 ovarian
M14 melanoma = test system: M14 melanoma
HCC-2998 colon = test system: HCC-2998 colon
COLO 205 colon = test system: COLO 205 colon
HT29 colon = test system: HT29 colon
KM12 colon = test system: KM12 colon
HS 578T breast = test system: HS 578T breast
BT-549 breast = test system: BT-549 breast
HL-60(TB) leukemia = test system: HL-60(TB) leukemia
HCT-116 colon = test system: HCT-116 colon
PC-3 prostate = test system: PC-3 prostate
OVCAR-3 ovarian = test system: OVCAR-3 ovarian
MOLT-4 leukemia = test system: MOLT-4 leukemia
T-47D breast = test system: T-47D breast
UO-31 renal = test system: UO-31 renal
TK-10 renal = test system: TK-10 renal
A549 NSCLC = test system: A549 NSCLC
MDA-MB-435 = test system: MDA-MB-435
SF-295 CNS = test system: SF-295 CNS
IGROV1 ovarian = test system: IGROV1 ovarian
RXF 393 renal = test system: RXF 393 renal
CAKI-1 renal = test system: CAKI-1 renal
SF-268 CNS = test system: SF-268 CNS
HCT-15 colon = test system: HCT-15 colon
UACC-62 melanoma = test system: UACC-62 melanoma
MALME-3M melanoma = test system: MALME-3M melanoma
SF-539 CNS = test system: SF-539 CNS

Cc1nn(C)c2ncnc(N/N=C/c3cccc(O)c3O)c12
GI50 (MDA-MB-468 breast): 2.17 µM
TGI (MDA-MB-468 breast): 6.53 µM

COc1cc(F)c(F)cc1C(=O)c1cnc(NC2CCN(S(C)(=O)=O)CC2)nc1N
GI50 (MDA-MB-468 breast): 3.65 µM
TGI (MDA-MB-468 breast): 10.8 µM

CC(C)C[C@H](NC(=O)Cn1cccc(CNC(=O)c2ccccc2)c1=O)B(O)O
GI50 (MDA-MB-468 breast): 0.139 µM
TGI (MDA-MB-468 breast): 0.716 µM

O=C1OCC2=C1C(c1cccc(C(F)(F)F)c1)c1cc3c(cc1N2CCO)OCCO3 (stereo not drawn)
GI50 (MDA-MB-468 breast): 1.41 µM
TGI (MDA-MB-468 breast): > 33.3 µM

O/N=C(\CSc1nnc(-c2c[nH]c3ccccc23)n1-c1ccccc1)c1ccc(Cl)cc1
GI50 (ACHN renal): 3.69 µM
TGI (ACHN renal): 14.5 µM
GI50 (SNB-19 CNS): 6.89 µM
TGI (SNB-19 CNS): 45.2 µM
GI50 (RPMI-8226 leukemia): 2.38 µM
TGI (RPMI-8226 leukemia): 7.29 µM
GI50 (SW-620 colon): 3.08 µM
TGI (SW-620 colon): 16.1 µM
GI50 (SK-MEL-28 melanoma): 4.41 µM
TGI (SK-MEL-28 melanoma): > 100 µM
GI50 (NCI-H226 lung): 3.98 µM
TGI (NCI-H226 lung): 17.6 µM
GI50 (NCI-H460 lung): 3.34 µM
TGI (NCI-H460 lung): 15.7 µM
GI50 (786-0 renal): 7.29 µM
TGI (786-0 renal): > 100 µM
GI50 (MDA-MB-468 breast): 1.72 µM
TGI (MDA-MB-468 breast): 3.47 µM
GI50 (NCI-H522 lung): 3.11 µM
TGI (NCI-H522 lung): 12.5 µM
GI50 (SR leukemia): 4.74 µM
TGI (SR leukemia): > 100 µM
GI50 (MCF7 breast): 3.63 µM
TGI (MCF7 breast): 21.6 µM
GI50 (SK-MEL-2 melanoma): 3.64 µM
TGI (SK-MEL-2 melanoma): 17.1 µM
GI50 (NCI/ADR-RES ovarian): 2.95 µM
TGI (NCI/ADR-RES ovarian): 9.5 µM
GI50 (A498 renal): 15.4 µM
TGI (A498 renal): 65.8 µM
GI50 (DU-145 prostate): 2.59 µM
TGI (DU-145 prostate): 6.32 µM
GI50 (LOX IMVI melanoma): 1.72 µM
TGI (LOX IMVI melanoma): 3.12 µM
GI50 (HOP-92 NSCLC): 3.84 µM
TGI (HOP-92 NSCLC): 37.6 µM
GI50 (U251 CNS): 4.73 µM
TGI (U251 CNS): 81.2 µM
GI50 (SK-MEL-5 melanoma): 3.87 µM
TGI (SK-MEL-5 melanoma): 19.5 µM
GI50 (SNB-75 CNS): 1.68 µM
TGI (SNB-75 CNS): 5.8 µM
GI50 (SN12C renal): 3.79 µM
TGI (SN12C renal): 16.3 µM
GI50 (NCI-H23 lung): 6.51 µM
TGI (NCI-H23 lung): > 100 µM
GI50 (OVCAR-8 ovarian): 3.72 µM
TGI (OVCAR-8 ovarian): 15.8 µM
GI50 (MDA-MB-231 breast): 1.87 µM
TGI (MDA-MB-231 breast): 3.66 µM
GI50 (OVCAR-5 ovarian): 3.37 µM
TGI (OVCAR-5 ovarian): 11.4 µM
GI50 (EKVX NSCLC): 3.21 µM
TGI (EKVX NSCLC): 19.2 µM
GI50 (UACC-257 melanoma): 4.67 µM
TGI (UACC-257 melanoma): 87.8 µM
GI50 (SK-OV-3 ovarian): 3.38 µM
TGI (SK-OV-3 ovarian): 12.4 µM
GI50 (M14 melanoma): 3.16 µM
TGI (M14 melanoma): 14.1 µM
GI50 (HCC-2998 colon): 4.74 µM
TGI (HCC-2998 colon): 22.5 µM
GI50 (COLO 205 colon): 4.47 µM
TGI (COLO 205 colon): 25.9 µM
GI50 (HT29 colon): 3.04 µM
TGI (HT29 colon): 11.8 µM
GI50 (KM12 colon): 4.72 µM
TGI (KM12 colon): > 100 µM
GI50 (HS 578T breast): 3.09 µM
TGI (HS 578T breast): 16.6 µM
GI50 (BT-549 breast): 3.71 µM
TGI (BT-549 breast): 11.1 µM
GI50 (HL-60(TB) leukemia): 2.17 µM
TGI (HL-60(TB) leukemia): 6.34 µM
GI50 (HCT-116 colon): 2.92 µM
TGI (HCT-116 colon): 13.7 µM
GI50 (PC-3 prostate): 2.31 µM
TGI (PC-3 prostate): 7.29 µM
GI50 (OVCAR-3 ovarian): 4.58 µM
TGI (OVCAR-3 ovarian): 32.4 µM
GI50 (MOLT-4 leukemia): 2.16 µM
TGI (MOLT-4 leukemia): 5.69 µM
GI50 (T-47D breast): 3.6 µM
TGI (T-47D breast): 31.4 µM
GI50 (UO-31 renal): 2.88 µM
TGI (UO-31 renal): 15.7 µM
GI50 (TK-10 renal): 3.7 µM
TGI (TK-10 renal): 17.7 µM
GI50 (A549 NSCLC): 3.35 µM
TGI (A549 NSCLC): 16.8 µM
GI50 (MDA-MB-435): 1.74 µM
TGI (MDA-MB-435): 3.41 µM
GI50 (SF-295 CNS): 3.11 µM
TGI (SF-295 CNS): 13.4 µM
GI50 (IGROV1 ovarian): 5.35 µM
TGI (IGROV1 ovarian): 19.8 µM
GI50 (RXF 393 renal): 2.22 µM
TGI (RXF 393 renal): 6.29 µM
GI50 (CAKI-1 renal): 2.93 µM
TGI (CAKI-1 renal): 12.4 µM
GI50 (SF-268 CNS): 2.11 µM
TGI (SF-268 CNS): 5.08 µM
GI50 (HCT-15 colon): 3.2 µM
TGI (HCT-15 colon): 13.6 µM
GI50 (UACC-62 melanoma): 2.62 µM
TGI (UACC-62 melanoma): 10.1 µM
GI50 (MALME-3M melanoma): 4.99 µM
TGI (MALME-3M melanoma): 27.5 µM
GI50 (SF-539 CNS): 10.2 µM
TGI (SF-539 CNS): 29.5 µM
